Tests used:
Format in all cases: cell-based
[1] = tested on: RKO and SW620 cells; test: CCK8 survival assay, USP25 knockdown USP25-high colon cancer cells; conditions: RKO: cisplatin (0, 0.5, 1, 3 µM), 5-Fu (0, 0.1, 0.5, 1, 3 µM), SW620: 5-Fu (0, 0.1, 0.5, 1, 3 µM), 72 h
Experimental: For long-term proliferation, cells were seeded in triplicate in each well of 96-well plates at a density of 1000 cells per well. After 24 h of culture, the cells were treated with the indicated doses of regents or peptides and incubated at 37 °C for 72 h. Subsequently, the medium was changed to a fresh medium containing cell counting kit-8 solution (Dojindo, CK04), and the cells were placed in the incubator for an additional 1-2 h. […] a) The mRNA expression levels of TRIM25, HECTD3, NEDD4L and WWP2 in human normal colon tissue samples (n=41) and colorectal adenocarcinoma tissue samples (n=286 COAD patients) from the Ualcan database were analyzed. b) The protein expression levels of USP25 were measured in HEK293T cells that stably expressed TRIM25 shRNA. c) NHEJ repair capacity of control or TRIM25 knockdown cells were subjected using a reporter assay. d-g) Immunoblot of USP25 in the RKO cells stably expressing control and USP25 shRNA. […] Statistical analysis was performed using t-test (a) or one-way ANOVA followed by a Turkey's multiple comparison test (c) or two-way ANOVA followed by a Turkey's multiple comparison test ([…]) .

[2] = tested on: SW480 cells; test: CCK8 survival assay, TRIM25 knockdown SW480 cells; conditions: ctrl vs USP25-depleted SW480, 5-Fu (0, 0.1, 0.5, 1, 3 µM), 72 h
From the text: (§1) Figure 6 TRIM25 ubiquitinates and inactivates USP25. a) The mRNA expression levels of USP25 in human normal colon tissue samples (n = 41) and colorectal adenocarcinoma tissue samples (n = 286 COAD patients) from the Ualcan database. b) The mRNA expression level of USP25 in human colon cell lines and colon carcinoma cell lines through qPCR. c) The protein expression level of USP25 in human colon cell lines and colon carcinoma cell lines through western blot. d) Tissue microarray with representative IHC images showing USP25 protein expression in COAD tumors and adjacent tissues. […] Cell lysates were subjected to HA resin, and the immunoprecipitants were subsequently blotted using the indicated antibodies. f) The protein expression levels of USP25 were evaluated in HEK293T cells transfected with MYC‐TRIM25 or Flag‐HECTD3. g) The effect of cycloheximide (CHX) treatment on USP25 expression levels was analyzed in HEK293T cells transfected with TRIM25 for an indicated duration of time. h) In vivo ubiquitination assays were performed in control and TRIM25 knockdown cells, transfected with indicated plasmids, and treated with MG132 for 4 h before harvesting. […]
(§2) For long‐term proliferation, cells were seeded in triplicate in each well of 96‐well plates at a density of 1000 cells per well. […] The absorbance was measured at 450 nm using the SpectraMax M5 reader (Molecular Devices).

[3] = tested on: SW620 cells; test: CCK8 survival assay, SW620 cells overexpressing TRIM25; conditions: SW620 ctrl, 5-Fu (0, 0.1, 0.5, 1, 3 µM), 72 h
From the text: as §1, §2

[4] = tested on: USP25-MDC1 interaction; test: Co-IP of USP25-MDC1 interaction after DNA damage; conditions: 5-Fu (20 uM), HEK293T and RKO
Experimental: USP25 was immunoprecipitated and immunoblotted with p‐SQ/TQ. d) USP25 knockdowm U2OS cells rescued with USP25WT or USP25T523A were treated with IR (2 Gy), and co‐localization USP25 with γH2AX was detected by immunofluorescence. n>80 in each group. e) HEK293T cells were left untreated or treated with 5‐Fu (20 uM). MDC1 was immunoprecipitated and immunoblotted with USP25. f) HEK293T cells transfected with USP25 were treated with 5‐Fu (20 uM), and cell lysates were incubated with GST or GST‐MDC1 deletions in vitro. […] The interaction USP25 and MDC1‐BRCT was detected. h) Non‐phosphorylated or phosphorylated Thr523 peptide was conjugated to beads and incubated with purified GST‐MDC1‐BRCT domain in buffer.
Flag was immunoprecipitated and immunoblotted with indicated antibodies. c-d) RKO cells were left untreated or treated with 5-Fu (20uM)(c) or IR(10Gy)(d). […] The interaction USP25 and MDC1-BRCT was detected.

SMILES: O=c1[nH]cc(F)c(=O)[nH]1 [5‐Fu, 5‐fluorouracil]
- sensitization by USP25 knockdown, USP25-high cell lines [1]: sensitized the cells to IR, cisplatin, and 5‐Fu treatment
- resistance by TRIM25 knockdown [2]: resistant to 5‐Fu treatment in ctrl cells but not USP25‐depleted SW480 cells
- sensitization by TRIM25 overexpression [3]: sensitize to 5‐Fu treatment in ctrl SW620 cells
- USP25-MDC1 interaction after treatment [4]: increased following 5‐Fu or IR treatment

Reference: paper PMC11267380, “USP25 Elevates SHLD2‐Mediated DNA Double‐Strand Break Repair and Regulates Chemoresponse in Cancer” (Advanced Science, 2024)
